Converted amounts (≈) assume the structure as drawn.
Tests used:
[1] = test system: Escherichia coli 25922 ATCC; assay: MIC, broth micro-dilution, Gram-negative strain; type: cell-based; conditions: Mueller Hinton broth, inoculum 5 × 10^5 CFU/mL, 24 h at 36 °C
Method: (§1) We performed a study of antibacterial activity of the synthesized compounds 17 on a panel of clinical isolates of the Gram-positive microorganisms S. haemolyticus 602, S. aureus 3798 (VISA), and Enterococcus faecalis 560 (Van A) and against the Gram-negative strain Escherichia coli 25922 ATCC by the MTT method (Table 1).
(§2) The in vitro study was performed according to the recommendations of the European Committee on Antimicrobial Susceptibility testing. The MIC values for Gram-positive and Gram-negative bacterial strains were determined by the broth micro-dilution method using Mueller Hinton broth (Acumedia Manufacturers Inc., Lansing, MI, USA) and the National Committee for Clinical Laboratory Standards procedures as described earlier.

[2] = test system: S. aureus 3798 (VISA); assay: MIC, broth micro-dilution, Gram-positive clinical isolate (VISA); type: cell-based, Staphylococcus aureus; conditions: Mueller Hinton broth, inoculum 5 × 10^5 CFU/mL, 24 h at 36 °C
Method: as §1, §2

[3] = test system: Enterococcus faecalis 560 (Van A); assay: MIC, broth micro-dilution, Gram-positive clinical isolate (Van A); type: cell-based; conditions: Mueller Hinton broth, inoculum 5 × 10^5 CFU/mL, 24 h at 36 °C
Method: as §1, §2

[4] = test system: S. haemolyticus 602; assay: MIC, broth micro-dilution, Gram-positive clinical isolate; type: cell-based, Staphylococcus haemolyticus; conditions: Mueller Hinton broth, inoculum 5 × 10^5 CFU/mL, 24 h at 36 °C
Method: as §1, §2

[5] = test system: Gram-positive bacteria; conditions: compared with vancomycin; cited from earlier work
Excerpt: Another antibiotic drug of this class, eremomycin (2), was discovered at the Gause Institute of New Antibiotics. It was isolated from Amycolatopsis orientalis subsp.

Row | Compound | MIC (Minimum Inhibitory Antibiotic Concentration), E. coli 25922 ATCC [1] [µg/mL] | MIC (Minimum Inhibitory Antibiotic Concentration), S. aureus 3798 (VISA) [2] [µg/mL] | MIC (Minimum Inhibitory Antibiotic Concentration), E. coli 25922 ATCC ([1]; listed as 1) [µg/mL] | MIC (Minimum Inhibitory Antibiotic Concentration), E. faecalis 560 (Van A) [3] [µg/mL] | MIC (Minimum Inhibitory Antibiotic Concentration), S. haemoliticus 602 [4] [µg/mL] | MIC (Minimum Inhibitory Antibiotic Concentration), E. coli 25922 ATCC ([1]; listed as 2) [µg/mL] | efficacy against Gram-positive bacteria relative to vancomycin [5]
1 | Kanamycin A [Kanamycin A (3)] | 4 | – | – | – | – | – | –
2 | CN[C@H](CC(C)C)C(=O)N[C@H]1C(=O)N[C@@H](CC(N)=O)C(=O)N[C@H]2C(=O)N[C@H]3C(=O)N[C@H](C(=O)N[C@H](C(=O)O)c4cc(O)cc(O)c4-c4cc3ccc4O)[C@H](O)c3ccc(c(Cl)c3)Oc3cc2cc(c3O[C@@H]2O[C@H](CO)[C@@H](O)[C@H](O)[C@H]2O[C@H]2C[C@](C)(N)[C@H](O)[C@H](C)O2)Oc2ccc(cc2Cl)[C@H]1O [Vancomycin (1), Vancomycin] | >64 | 8 (≈ 5.52 µM) | > 64 | >64 | 1 (≈ 0.69 µM) | – | –
3 | CN[C@H](CC(C)C)C(=O)N[C@H]1C(=O)N[C@@H](CC(N)=O)C(=O)N[C@H]2C(=O)N[C@H]3C(=O)N[C@H](C(=O)N[C@@H](C(=O)O)c4cc(O)cc(O)c4-c4cc3ccc4O)[C@H](O[C@@H]3C[C@@](C)(N)[C@H](O)[C@@H](C)O3)c3ccc(cc3)Oc3cc2cc(c3O[C@H]2O[C@@H](CO)[C@H](O)[C@@H](O)[C@@H]2O[C@H]2C[C@](C)(N)[C@@H](O)[C@H](C)O2)Oc2ccc(cc2Cl)[C@H]1O (stereo in doubt) [Eremomycin (2), Eremomycin] | 64 (≈ 41.1 µM) | 16 (≈ 10.3 µM) | – | >64 | 0.25 (≈ 0.16 µM) | > 64 | three to five times higher
4 | 3,6′-Di-Cbz-Kanamycinyl A 1-Amide of Eremomycin [Compound 6] | >64 | 4 | – | 8 | – | – | –
5 | NC1CC(NC(=O)OCc2ccccc2)C(OC2OC(CNC(=O)OCc3ccccc3)C(O)C(O)C2O)C(O)C1OC1OC(CO)C(O)C(N)C1O (centres unmarked) [Compound 4, 3,6′-Di-Benzyloxycarbonyl-Kanamycin A] | >64 | – | – | – | – | – | –
6 | Kanamycinyl A 1-Amide of Eremomycin [Compound 7] | >64 | 2 | – | 32 | 0.25 | – | –
7 | 3,6′-Di-Cbz-Kanamycinyl A 1-Amide of Vancomycin [Compound 5] | >64 | 2 | – | 32 | – | – | –

Reference: article PMC10215198, “Antibacterial Conjugates of Kanamycin A with Vancomycin and Eremomycin: Biological Activity and a New MS-Fragmentation Pattern of Cbz-Protected Amines” (Antibiotics, 2023)
